Experimental data as given in patent US20260130933A1, “PHARMACEUTICAL COMPOSITION FOR PREVENTION OR TREATMENT OF NEPHROPATHY AND/OR DIABETES MELLITUS, COMPRISING ENAVOGLIFLOZIN” (DAEWOONG PHARMACEUTICAL CO., LTD., priority 2022, published 2026).

Assay: Example 2: phase 3 trial, enavogliflozin 0.3 mg vs dapagliflozin 10 mg once a day for 24 weeks added to metformin in patients with type 2 diabetes (same efficacy, exploratory and safety endpoints)
Assay type: in vivo, human
Conditions: for fasting Total cholesterol, Mean (SD) / fasting Total cholesterol, Median / Change from baseline in Total cholesterol, ANCOVA LS mean (SE) / Change from baseline in Total cholesterol, Mean (SD) / Change from baseline in total cholesterol, Median: modified per-protocol set 1; for fasting Total cholesterol, Mean (SD) / fasting Total cholesterol, Median / Change from baseline in FPG, ANCOVA LS mean (SE) / Change from baseline in FPG, Mean (SD) / Change from baseline in FPG, Median / Change from baseline in HbA1c, ANCOVA LS mean (SE) / Change from baseline in HbA1c, Mean (SD) / Change from baseline in HbA1c, Median / Change from baseline in body weight, ANCOVA LS mean (SE) / Change from baseline in body weight, Mean (SD) / Change from baseline in body weight, Median / Change from baseline in fasting c-peptide, ANCOVA LS mean (SE) / Change from baseline in fasting c-peptide, Mean (SD) / Change from baseline in fasting c-peptide, Median / FPG, Mean (SD) / FPG, Median / HbA1c, Mean (SD) / HbA1c, Median / Subjects achieving HbA1c target of <6.5%, (%) / Subjects achieving therapeutic glycemic response, (%) / body weight, Mean (SD) / body weight, Median / fasting c-peptide, Mean (SD) / fasting c-peptide, Median / Change from baseline in Total cholesterol, ANCOVA LS mean (SE) / Change from baseline in Total cholesterol, Mean (SD) / Change from baseline in total cholesterol, Median: enavogliflozin 0.3 mg, dapagliflozin 10 mg; for Change from baseline in FPG, ANCOVA LS mean (SE) / Change from baseline in FPG, Mean (SD) / Change from baseline in FPG, Median / Change from baseline in HbA1c, ANCOVA LS mean (SE) / Change from baseline in HbA1c, Mean (SD) / Change from baseline in HbA1c, Median / Change from baseline in body weight, ANCOVA LS mean (SE) / Change from baseline in body weight, Mean (SD) / Change from baseline in body weight, Median / Change from baseline in fasting c-peptide, ANCOVA LS mean (SE) / Change from baseline in fasting c-peptide, Mean (SD) / Change from baseline in fasting c-peptide, Median / FPG, Mean (SD) / FPG, Median / HbA1c, Mean (SD) / HbA1c, Median / Subjects achieving HbA1c target of <6.5%, (%) / Subjects achieving therapeutic glycemic response, (%) / body weight, Mean (SD) / body weight, Median / fasting c-peptide, Mean (SD) / fasting c-peptide, Median: per-protocol set
Procedure: Subjects who met the inclusion/exclusion criteria were administered a placebo of the clinical trial drug under single-blind (subject blinding) conditions during a 2-week run-in period while continuing to receive metformin. […] The randomized subjects were administered two tablets of the clinical trial drug for each administration group once a day, and then visited the institution at weeks 6, 12, 18, and 24 during the 24-week administration period to conduct efficacy and safety evaluations.
• 1. Change in HbA1c at week 24 after administration of clinical trial drug compared to Visit 2 (randomization)
• 1. Change in HbA1c at each time point of weeks 6, 12, and 18 after administration of clinical trial drug compared to Visit 2 (randomization) • 2. Change in FPG at each time point of weeks 6, 12, 18, and 24 after administration of clinical trial drug compared to Visit 2 (randomization) • 3. Proportion of subjects achieving HbA1c<7% at each time point of weeks 6, 12, 18, and 24 after administration of clinical trial drug • 4. Proportion of subjects achieving HbA1c<6.5% at each time point of weeks 6, 12, 18, and 24 after administration of clinical trial drug • 5. Proportion of subjects achieving therapeutic response (HbA1c change (HbA1c at Visit 2-HbA1c at each evaluation time point)>0.5% or HbA1c<7% at each evaluation time point compared to Visit 2 (randomization)) at each time point of weeks 6, 12, 18 and 24 after administration of clinical trial drug
• 1. Change in fasting c-peptide at each time point of weeks 6, 12, 18, and 24 after administration of clinical trial drug compared to Visit 2 (randomization) • 2. Change in body weight at each time point of weeks 6, 12, 18, and 24 after administration of clinical trial drug compared to Visit 2 (randomization) • 3. Change in fasting lipid concentration (total cholesterol, LDL-C, HDL-C, and triglycerides) at each time point of weeks 6, 12, 18, and 24 after administration of clinical trial drug compared to Visit 2 (randomization) • 4. Changes in systolic or diastolic blood pressure at each time point of weeks 6, 12, 18, and 24 after administration of clinical trial drug compared to Visit 2 (randomization) • 5. Changes in β-cell function and insulin resistance measured by HOMA-β and HOMA-IR at each time point of weeks 6, 12, 18, and 24 after administration of clinical trial drug compared to Visit 2 (randomization) • 6. Changes in renal function-related indicators (UACR, UGCR) measured by UACR at each time point of weeks 6, 12, 18, and 24 after administration of clinical trial drug compared to Visit 2 (randomization) • 7. Changes in obesity-related indicators (adiponectin, leptin) at each time point of weeks 6, 12, 18, and 24 after administration of clinical trial drug compared to Visit 2 (randomization)

[1] = week 24, listed as dapagliflozin

CCOc1ccc(Cc2cc([C@@H]3O[C@H](CO)[C@@H](O)[C@H](O)[C@H]3O)ccc2Cl)cc1 [Dapagliflozin, reference compound]
fasting Total cholesterol, Mean (SD) (week 12): 143.19(28.59) mg/dL | fasting Total cholesterol, Median (week 12): 138.00 mg/dL | Change from baseline in FPG, ANCOVA LS mean (SE) (week 12): -30.11 mg/dL | Change from baseline in FPG, Mean (SD) (week 12): -31.89 mg/dL | Change from baseline in FPG, Median (week 12): -23.50 mg/dL | Change from baseline in HbA1c, ANCOVA LS mean (SE) (week 12): −0.79 % p | Change from baseline in HbA1c, Mean (SD) (week 12): −0.74 % p | Change from baseline in HbA1c, Median (week 12): −0.66 % p | Change from baseline in body weight, ANCOVA LS mean (SE) (week 12): −2.63(0.23) kg | Change from baseline in body weight, Mean (SD) (week 12): −2.61(1.66) kg | Change from baseline in body weight, Median (week 12): -2.55 kg | Change from baseline in fasting c-peptide, ANCOVA LS mean (SE) (week 12): −0.09(0.02) ng/mL | Change from baseline in fasting c-peptide, Mean (SD) (week 12): −0.08(0.18) ng/mL | Change from baseline in fasting c-peptide, Median (week 12): -0.10 ng/mL | FPG, Mean (SD) (week 12): 117.78 mg/dL | FPG, Median (week 12): 116.50 mg/dL | HbA1c, Mean (SD) (week 12): 6.94% | HbA1c, Median (week 12): 6.83% | Subjects achieving HbA1c target of <6.5%, (%) (week 12): (26.14) % | Subjects achieving therapeutic glycemic response, (%) (week 12): (79.55) % | body weight, Mean (SD) (week 12): 68.19(11.65) kg | body weight, Median (week 12): 66.90 kg | fasting c-peptide, Mean (SD) (week 12): 0.66(0.23) ng/mL | fasting c-peptide, Median (week 12): 0.65 ng/mL | FPG change from baseline, LS mean (SE) (week 18): −31.13(1.63) mg/dL | HOMA-IR change from baseline, LS mean (SE) (week 18): −1.47(0.12) | HOMA-β change from baseline, LS mean (SE) (week 18): 13.49(3.08) | HbA1c change from baseline, LS mean (SE) (week 18): −0.70(0.06) % p | LDL-C change from baseline, LS mean (SE) (week 18): 2.58(1.89) mg/dL | Subjects achieving HbA1c target of <7% (week 18): (57.47) % | Subjects achieving HbA1c<6.5% (week 18): 25.29% | Subjects achieving therapeutic response (HbA1c change >0.5% or HbA1c<7%) (week 18): 73.56% | UACR change from baseline, LS mean (SE) (week 18): −12.95(5.11) g/kg | diastolic blood pressure change from baseline, LS mean (SE) (week 18): −4.10(0.81) mmHg | fasting c-peptide change from baseline, LS mean (SE) (week 18): −0.06(0.19) ng/ml | leptin change from baseline, LS mean (SE) (week 18): −1.23(0.53) ng/mL | Subjects achieving HbA1c target of <7% (week 18, listed as dapagliflozin): 57.47% | Change from baseline in Total cholesterol, ANCOVA LS mean (SE) (week 18): 9.57(2.20) mg/dL | Change from baseline in Total cholesterol, Mean (SD) (week 18): 10.18(22.74) mg/dL | Change from baseline in total cholesterol, Median (week 18): 9.00 mg/dL | fasting Total cholesterol, Mean (SD) (week 18): 148.48(30.10) mg/dL | fasting Total cholesterol, Median (week 18): 151.50 mg/dL | Change from baseline in FPG, ANCOVA LS mean (SE) (week 18): -31.13 mg/dL | Change from baseline in FPG, Mean (SD) (week 18): -32.55 mg/dL | Change from baseline in FPG, Median (week 18): -26.00 mg/dL | Change from baseline in HbA1c, ANCOVA LS mean (SE) (week 18): −0.70 % p | Change from baseline in HbA1c, Mean (SD) (week 18): −0.66 % p | Change from baseline in HbA1c, Median (week 18): −0.61 % p | Change from baseline in body weight, ANCOVA LS mean (SE) (week 18): −3.16(0.26) kg | Change from baseline in body weight, Mean (SD) (week 18): −3.19(1.93) kg | Change from baseline in body weight, Median (week 18): -3.00 kg | Change from baseline in fasting c-peptide, ANCOVA LS mean (SE) (week 18): −0.06(0.02) ng/mL | Change from baseline in fasting c-peptide, Mean (SD) (week 18): −0.06(0.19) ng/mL | Change from baseline in fasting c-peptide, Median (week 18): -0.03 ng/mL | FPG, Mean (SD) (week 18): 116.53 mg/dL | FPG, Median (week 18): 115.00 mg/dL | HbA1c, Mean (SD) (week 18): 7.02% | HbA1c, Median (week 18): 6.90% | Subjects achieving HbA1c target of <6.5%, (%) (week 18): (25.29) % | Subjects achieving therapeutic glycemic response, (%) (week 18): (73.56) % | body weight, Mean (SD) (week 18): 67.54(11.96) kg | body weight, Median (week 18): 67.00 kg | fasting c-peptide, Mean (SD) (week 18): 0.69(0.24) ng/mL | fasting c-peptide, Median (week 18): 0.66 ng/mL | FPG change from baseline, LS mean (SE) (week 24): −29.14(1.82) mg/dL | HOMA-IR change from baseline, LS mean (SE) (week 24): −1.31(0.14) | HOMA-β change from baseline, LS mean (SE) (week 24): 11.93(3.25) | HbA1c change from baseline, LS mean (SE) (week 24): −0.75 % p | HbA1c change from baseline, Mean (SD) (week 24): −0.71 % p | HbA1c, Mean (week 24): 6.97% | LDL-C change from baseline, LS mean (SE) (week 24): 0.93(1.98) mg/dL | Subjects achieving HbA1c target of <7% (week 24): (62.22) % | Subjects achieving HbA1c<6.5% (week 24): 27.78% | Subjects achieving therapeutic response (HbA1c change >0.5% or HbA1c<7%) (week 24): 75.56% | UACR change from baseline, LS mean (SE) (week 24): −17.37(3.48) g/kg | UGCR change from baseline, LS mean (SE) (week 24): 44.94(2.18) mg/mg | diastolic blood pressure change from baseline, LS mean (SE) (week 24): −4.26(0.67) mmHg | fasting c-peptide change from baseline, LS mean (SE) (week 24): −0.04(0.26) ng/ml | leptin change from baseline, LS mean (SE) (week 24): −1.28(0.53) ng/mL | HbA1c change from baseline, LS mean (SE) [1]: −0.75(0.06) % p | HbA1c change from baseline, Mean (SD) [1]: −0.71(0.76) % p | Subjects achieving HbA1c target of <7% [1]: 62.22% | Change from baseline in Total cholesterol, ANCOVA LS mean (SE) (week 24): 6.74(2.30) mg/dL | Change from baseline in Total cholesterol, Mean (SD) (week 24): 9.15(22.59) mg/dL | Change from baseline in total cholesterol, Median (week 24): 10.00 mg/dL | fasting Total cholesterol, Mean (SD) (week 24): 147.02(27.55) mg/dL | fasting Total cholesterol, Median (week 24): 145.00 mg/dL | Change from baseline in FPG, ANCOVA LS mean (SE) (week 24): -29.14 mg/dL | Change from baseline in FPG, Mean (SD) (week 24): -31.42 mg/dL | Change from baseline in FPG, Median (week 24): -24.00 mg/dL | Change from baseline in body weight, ANCOVA LS mean (SE) (week 24): −3.58(0.34) kg | Change from baseline in body weight, Mean (SD) (week 24): −3.60(2.14) kg | Change from baseline in body weight, Median (week 24): -3.40 kg | Change from baseline in fasting c-peptide, ANCOVA LS mean (SE) (week 24): −0.04(0.02) ng/mL | Change from baseline in fasting c-peptide, Mean (SD) (week 24): −0.04(0.26) ng/mL | Change from baseline in fasting c-peptide, Median (week 24): -0.07 ng/mL | FPG, Mean (SD) (week 24): 117.91 mg/dL | FPG, Median (week 24): 116.50 mg/dL | Subjects achieving HbA1c target of <6.5%, (%) (week 24): (27.78) % | Subjects achieving therapeutic glycemic response, (%) (week 24): (75.56) % | body weight, Mean (SD) (week 24): 66.92(11.89) kg | body weight, Median (week 24): 66.05 kg | fasting c-peptide, Mean (SD) (week 24): 0.70(0.30) ng/mL | fasting c-peptide, Median (week 24): 0.66 ng/mL
